Results taken from ChEMBL document CHEMBL1201862, “PubChem BioAssay data set” (2004).
Several values for one entry are separate records, joined by “and”; a condition that tells them apart may be missing. Identical values can stand only once. Activity calls are given as the source filed them.

Key:
[1] = inhibitors of HIV Env-driven cell fusion, dose response, cherry-pick (AID 652057); assay type: functional, cell-based
[2] = off-target signal loss in HeLa-CEM21 co-culture – HeLa F-luc CTL cells, cherry-picked, counter-screen for HIV-1 Env fusion inhibitor project, dose response (AID 652040); assay type: functional, cell-based;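 further: potency for signal decrease marking cytotoxic or nonspecific inhibition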
[3] = ZM109 Env clade C HIV-1 fusion inhibitors, dose response, HeLa effector, CEM target cells, luciferase, cherry-pick (AID 652058); assay type: functional, cell-based
[4] = inhibitors of clade B AD8 Env fusion, dose response, cell-based, cherry-pick (AID 652062); assay type: functional;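 further: luciferase signal from cell-cell fusion driven by HIV-1 clade B AD8 Env; potency is for inhibitors of fusion seen as a drop in luminescence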
[5] = CEM21 lymphoblast cell cytotoxicity, dose response, cytotoxicity control for viral fusion inhibitor project, CellTiter-Glo luminescence, cherry-picked (AID 652042); assay type: functional, cell-based;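 further: potency for signal decrease meaning cytotoxicity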
HEK293 = assay: HEK293T cell cytotoxicity, dose response, cytotoxicity control, ATP luminescence, cherry-pick samples (AID 687005); assay type: functional, cell-based; details: Homo sapiens;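 further: cells exposed to compound for 48 hours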
[6] = HEK293 Cytotoxicity Assay Measured in Cell-Based System Using Plate Reader - 7071-01_Inhibitor_Dose_CherryPick_Activity_Set2.; assay type: functional
[7] = ADAM10 inhibitors, peptide cleavage, dose response, biochemical, QFRET (AID 743254);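 further: ADAM10 enzyme with the DM2 quenched FRET peptide as substrate; EDANS fluorescence gain as the protease cuts the substrate; inhibitor potency against ADAM10 proteolytic activity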
[8] = target: T1, Disintegrin and metalloproteinase domain-containing protein 17 (Homo sapiens, UniProt P78536); assay: ADAM17 protease inhibitors, dose response, counter-screen for ADAM10 exosite inhibitor project, biochemical, quenched FRET substrate (AID 743253)
A549 = assay: A549 cell toxicity, dose response, cytotoxicity control, plate reader, cherry-pick samples (AID 687028); assay type: functional, cell-based; details: Homo sapiens
Vero = assay: Vero cell toxicity, dose response, cytotoxicity control, plate reader, cherry-pick samples (AID 687020); assay type: functional, cell-based; details: Chlorocebus sabaeus
BHK-21 = assay: BHK-21 cell toxicity, dose response, cytotoxicity control, plate reader, cherry-pick samples (AID 687030); assay type: functional, cell-based; details: Mesocricetus auratus
Paired box protein Pax-8 = Paired box protein Pax-8 (Homo sapiens, UniProt Q06710); assay: inhibitors of PAX8-driven TPO luciferase reporter, dose response, RMG-I cells, cherry-pick (AID 687027); assay type: functional, cell-based;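 further: luciferase reporter driven by Pax8 target thyroperoxidase promoter measured by SteadyGlo luminescence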
[9] = NIH:OVCAR-3 ovarian cancer cell cytotoxicity, dose response, PAX8 inhibitor project, plate reader, dry powder samples (AID 743044); assay type: functional, cell-based
[10] = A2780 ovarian cancer cell cytotoxicity, dose response, cytotoxicity control, plate reader, dry powder samples (AID 743046); assay type: functional, cell-based
[11] = human group III sPLA2 inhibitors, dose response, biochemical, QFRET, IC50 (AID 743457);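 further: green fluorescence rise as the enzyme cleaves BODIPY PC-A2 in liposomes; potency for inhibition of the enzyme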
[12] = T. cruzi growth inhibition in host cells, dose response, cell-based, plate reader, dry powder, set 2 (AID 652275); assay type: functional
[13] = ADAM10 protease inhibitors, dose response, selectivity assay for ADAM17 exosite inhibitor project, biochemical, FRET peptide substrate, recombinant human ADAM10 (AID 743259);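 further: ADAM10 enzyme cleaving a FRET peptide substrate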
[14] = target: T1, Disintegrin and metalloproteinase domain-containing protein 17; assay: exosite inhibitors of ADAM17, dose response, biochemical (AID 743260)
[15] = target: T2, Runt-related transcription factor 1/Core-binding factor subunit beta (Homo sapiens, UniProt Q01196+Q13951); assay: inhibitors of RUNX1 Runt–CBFb-SMMHC binding, biochemical, TR-FRET (AID 1438); assay type: protein assay
[16] = target: T2, Runt-related transcription factor 1/Core-binding factor subunit beta; assay: inhibitors of RUNX1 Runt–CBFb-SMMHC binding, primary screen, biochemical, FRET, Cerulean-Runt, Venus-CBFb-SMMHC, uHTS (AID 1434); assay type: protein assay;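 further: partner is the CBFb-SMMHC leukemia fusion protein rather than wild-type CBFb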
cells [17] = details: A549
cells [18] = details: HEK293;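 further: cells exposed to compound for 48 hours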
[19] = target: NAD-dependent protein deacylase sirtuin-5, mitochondrial (Homo sapiens, UniProt Q9NXA8); assay: SIRT5 deacylase inhibitors, dose response, biochemical, fluorescence imaging, cherry-pick, set 6 (AID 720597)
[20] = HEK293T cytotoxicity, dose response, cytotoxicity control for miR-122 modulator project, cell-based, activator set, cherry-pick (AID 720690); assay type: functional;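 further: HEK293T human cells scored for general mammalian cytotoxicity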
[21] = inhibitors of CMV-promoter luciferase reporter, dose response, counter-screen for Pax8 inhibitor project, cell-based, HEK293, luminescence, dry powder (AID 743020); assay type: functional
[22] = HEK293T cytotoxicity, dose response, cytotoxicity control for miR-122 modulator project, cell-based, inhibitor set, cherry-pick, set 2 (AID 720697); assay type: functional
Major prion protein = Major prion protein (Homo sapiens, UniProt P04156); assay type: functional, cell-based
cells [23] = assay: cells
[24] = target: Nuclear receptor subfamily 0 group B member 1 (Homo sapiens, UniProt P51843); assay type: functional, cell-based;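 further: HEK293T cells transfected with SF-1 and DAX-1 plus StAR promoter luciferase reporter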
INS1 = assay: beta cell apoptosis inhibitors, cytokine rescue, dose response, luminescence, retest (AID 449756); assay type: functional, cell-based;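 further: cell death triggered by IL-1 beta plus TNF-alpha plus IFN-gamma mixture; protective hits raise ATP signal compared with cytokine alone wells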
[25] = Shn3 3'UTR reporter inhibitors, dose response, cell-based, Clone20 osteoblasts, firefly luciferase, cherry-picked (AID 624132); assay type: functional;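 further: firefly luciferase luminescence from reporter carrying the Shn3 3'UTR in osteoblasts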
[26] = control 3'UTR Renilla luciferase suppression, dose response, counter-screen for Shn3 inhibitor project, cell-based, Clone20-Shn3RL, cherry-picked (AID 624133); assay type: functional
[27] = cytotoxicity in HEK-293T cells, dose response, cytotoxicity control for BCR NF-kB inhibitor project, luminescence, B-cell screen hits (AID 489021); assay type: functional, cell-based;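 further: HEK-293T cells carrying an NF-kB luciferase reporter; cells exposed to compound for about 14 hours before viability readout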
[28] = Luminescence Cell-Based Dose Retest to Confirm Inhibitors of Cancer Stem Cells. [Related pubchem assays (depositor defined):AID2717, AID2721]; assay type: functional; details: Homo sapiens
cells [29] = assay type: functional, cell-based
[30] = LGR2 antagonists, dose response, cell-based, HEK293, CRE-luciferase reporter, cherry pick, set 2 (AID 743343); assay type: functional;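 further: transfected cells were stimulated with diluted bursicon conditioned medium after compound addition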
[31] = A549 cell cytotoxicity, dose response, cytotoxicity control, plate reader, cherry-pick, antagonist series (AID 743412); assay type: functional, cell-based
[32] = MC4R antagonists, dose response, counter-screen for LGR2 antagonist project, cell-based, plate reader, cherry pick (AID 743444); assay type: functional;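 further: transfected HEK 293 cells stimulated with alpha-MSH peptide; potency of inhibitors of the alpha-MSH evoked signal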
[33] = target: Metabotropic glutamate receptor 3 (Rattus norvegicus, UniProt P31422); assay: mGlu3 NAM potency via calcium readout, dose response, mGlu3 NAM project, TREx293 cells, Galpha15, calcium flux (AID 651840); assay type: functional
[34] = target: Protein disulfide-isomerase (Homo sapiens, UniProt P07237); assay: PDI inhibitors, insulin turbidity readout, confirmation, biochemical, dry powder samples, set 2 (AID 652146)
Protein RecA = target: T3, Protein RecA (Mycobacterium tuberculosis, UniProt P9WHJ3); assay: Fluorescence Cell-Free Homogeneous Dose Retest to Identify Inhibitors of RecA-Intein Splicing Activity. [Related pubchem assays (depositor defined):AID2097, AID2223, AID489010, AID492950]; assay type: functional
T3 sequence (P9WHJ3 whole entry): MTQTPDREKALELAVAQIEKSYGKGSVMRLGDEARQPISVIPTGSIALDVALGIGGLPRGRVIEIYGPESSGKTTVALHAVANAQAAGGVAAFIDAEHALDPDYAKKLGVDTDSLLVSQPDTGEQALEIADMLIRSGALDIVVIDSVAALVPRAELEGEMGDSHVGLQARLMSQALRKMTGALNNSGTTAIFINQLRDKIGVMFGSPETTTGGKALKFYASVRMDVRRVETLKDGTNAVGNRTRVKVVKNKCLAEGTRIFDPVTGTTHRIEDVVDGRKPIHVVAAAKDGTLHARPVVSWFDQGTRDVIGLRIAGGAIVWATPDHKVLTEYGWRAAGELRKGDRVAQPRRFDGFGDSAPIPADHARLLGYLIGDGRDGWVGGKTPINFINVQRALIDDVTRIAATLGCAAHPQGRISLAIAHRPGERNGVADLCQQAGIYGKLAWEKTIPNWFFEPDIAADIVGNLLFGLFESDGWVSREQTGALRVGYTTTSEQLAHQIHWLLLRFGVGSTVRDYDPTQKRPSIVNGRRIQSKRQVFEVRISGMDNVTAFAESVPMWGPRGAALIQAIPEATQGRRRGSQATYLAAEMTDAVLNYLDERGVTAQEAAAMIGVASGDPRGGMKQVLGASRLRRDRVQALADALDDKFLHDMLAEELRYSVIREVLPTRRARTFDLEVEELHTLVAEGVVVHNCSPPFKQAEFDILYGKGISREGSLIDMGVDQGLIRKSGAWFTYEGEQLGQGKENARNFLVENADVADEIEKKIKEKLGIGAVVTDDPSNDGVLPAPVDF

[35] = target: Histone-lysine N-methyltransferase NSD2 (Homo sapiens, UniProt O96028); assay type: biochemical
[36] = target: Induced myeloid leukemia cell differentiation protein Mcl-1 (Homo sapiens, UniProt Q07820); assay type: functional
cells [37] = assay: cells; remark: listed apart in the source
[38] = Late stage assay provider results from the probe development effort to identify inhibitors of the Plasmodium falciparum M17 Leucine Aminopeptidase (M17LAP): radiolabel-based cell-based dose response assay to identify compounds that inhibit P. falciparum growth in RBCs Set 2.; assay type: functional
[39] = Late stage assay provider results from the probe development effort to identify inhibitors of the Plasmodium falciparum M18 Aspartyl Aminopeptidase (M18AAP): radiolabel-based cell-based dose response assay to identify compounds that inhibit P. falciparum growth in RBCs, Set 2..; assay type: functional

Sequence of Paired box protein Pax-8 (Q06710 whole entry): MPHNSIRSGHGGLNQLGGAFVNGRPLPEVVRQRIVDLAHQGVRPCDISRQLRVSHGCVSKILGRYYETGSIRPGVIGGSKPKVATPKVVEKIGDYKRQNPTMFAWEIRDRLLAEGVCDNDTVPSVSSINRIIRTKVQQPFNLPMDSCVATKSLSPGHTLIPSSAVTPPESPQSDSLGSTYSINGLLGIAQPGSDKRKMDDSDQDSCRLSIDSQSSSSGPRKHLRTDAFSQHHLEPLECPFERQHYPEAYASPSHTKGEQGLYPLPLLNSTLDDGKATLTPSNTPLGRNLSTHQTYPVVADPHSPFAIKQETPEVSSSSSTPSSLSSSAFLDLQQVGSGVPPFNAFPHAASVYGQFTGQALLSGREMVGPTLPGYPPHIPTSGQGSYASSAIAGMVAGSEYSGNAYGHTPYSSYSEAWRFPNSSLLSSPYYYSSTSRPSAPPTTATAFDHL
T1 sequence (P78536 whole entry, the tested form may be a part): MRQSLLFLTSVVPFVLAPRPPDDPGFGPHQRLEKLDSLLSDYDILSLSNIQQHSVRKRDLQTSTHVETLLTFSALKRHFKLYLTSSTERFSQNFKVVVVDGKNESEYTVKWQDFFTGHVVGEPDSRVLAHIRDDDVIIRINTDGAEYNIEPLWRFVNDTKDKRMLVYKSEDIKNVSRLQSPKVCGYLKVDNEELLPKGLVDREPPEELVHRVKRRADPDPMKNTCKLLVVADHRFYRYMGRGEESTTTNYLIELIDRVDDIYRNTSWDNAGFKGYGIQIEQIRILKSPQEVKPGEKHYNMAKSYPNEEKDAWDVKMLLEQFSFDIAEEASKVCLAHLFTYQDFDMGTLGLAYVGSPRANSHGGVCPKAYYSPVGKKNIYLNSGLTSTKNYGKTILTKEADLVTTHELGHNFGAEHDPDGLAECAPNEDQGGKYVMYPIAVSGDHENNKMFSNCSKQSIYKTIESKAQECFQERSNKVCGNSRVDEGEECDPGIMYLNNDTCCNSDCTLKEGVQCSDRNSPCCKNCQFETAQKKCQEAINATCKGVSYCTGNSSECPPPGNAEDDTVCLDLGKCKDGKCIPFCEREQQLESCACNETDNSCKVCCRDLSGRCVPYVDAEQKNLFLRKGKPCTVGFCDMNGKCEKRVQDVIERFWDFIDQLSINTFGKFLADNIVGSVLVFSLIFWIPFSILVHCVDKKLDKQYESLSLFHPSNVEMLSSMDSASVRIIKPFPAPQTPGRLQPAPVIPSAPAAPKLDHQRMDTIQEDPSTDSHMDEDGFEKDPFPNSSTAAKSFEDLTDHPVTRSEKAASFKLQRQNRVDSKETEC
T2 sequence (Q01196 whole entry, the tested form may be a part): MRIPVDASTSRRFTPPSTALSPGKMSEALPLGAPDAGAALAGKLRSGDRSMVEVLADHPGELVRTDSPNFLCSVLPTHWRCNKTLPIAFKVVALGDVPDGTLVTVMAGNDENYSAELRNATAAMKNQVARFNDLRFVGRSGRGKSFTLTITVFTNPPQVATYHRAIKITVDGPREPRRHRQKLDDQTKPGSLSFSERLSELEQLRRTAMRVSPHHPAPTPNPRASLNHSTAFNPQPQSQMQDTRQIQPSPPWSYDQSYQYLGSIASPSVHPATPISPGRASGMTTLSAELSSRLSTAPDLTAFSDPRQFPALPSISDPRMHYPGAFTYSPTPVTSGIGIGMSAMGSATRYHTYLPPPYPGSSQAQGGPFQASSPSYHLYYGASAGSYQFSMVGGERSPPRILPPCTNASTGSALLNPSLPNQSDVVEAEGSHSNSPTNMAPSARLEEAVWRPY
T2 sequence (Q13951 whole entry, the tested form may be a part): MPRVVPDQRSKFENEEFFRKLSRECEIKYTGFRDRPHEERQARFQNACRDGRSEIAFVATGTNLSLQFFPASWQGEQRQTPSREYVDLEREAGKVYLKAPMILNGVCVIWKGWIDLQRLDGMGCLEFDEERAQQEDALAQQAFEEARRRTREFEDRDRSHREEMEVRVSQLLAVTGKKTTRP
Sequence of Nuclear receptor subfamily 0 group B member 1 (P51843 whole entry): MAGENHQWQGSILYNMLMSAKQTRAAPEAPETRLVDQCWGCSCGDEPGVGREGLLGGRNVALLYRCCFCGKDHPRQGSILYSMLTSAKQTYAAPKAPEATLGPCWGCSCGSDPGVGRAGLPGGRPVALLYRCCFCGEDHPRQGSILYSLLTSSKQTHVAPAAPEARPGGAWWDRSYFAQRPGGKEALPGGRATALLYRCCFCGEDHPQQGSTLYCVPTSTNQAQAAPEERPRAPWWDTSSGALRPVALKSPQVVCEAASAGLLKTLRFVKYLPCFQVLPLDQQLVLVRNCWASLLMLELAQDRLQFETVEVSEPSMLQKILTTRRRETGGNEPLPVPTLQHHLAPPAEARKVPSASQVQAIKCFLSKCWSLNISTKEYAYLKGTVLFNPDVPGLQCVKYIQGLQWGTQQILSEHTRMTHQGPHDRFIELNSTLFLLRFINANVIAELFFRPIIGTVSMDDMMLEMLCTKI
Sequence of Protein disulfide-isomerase (P07237 whole entry): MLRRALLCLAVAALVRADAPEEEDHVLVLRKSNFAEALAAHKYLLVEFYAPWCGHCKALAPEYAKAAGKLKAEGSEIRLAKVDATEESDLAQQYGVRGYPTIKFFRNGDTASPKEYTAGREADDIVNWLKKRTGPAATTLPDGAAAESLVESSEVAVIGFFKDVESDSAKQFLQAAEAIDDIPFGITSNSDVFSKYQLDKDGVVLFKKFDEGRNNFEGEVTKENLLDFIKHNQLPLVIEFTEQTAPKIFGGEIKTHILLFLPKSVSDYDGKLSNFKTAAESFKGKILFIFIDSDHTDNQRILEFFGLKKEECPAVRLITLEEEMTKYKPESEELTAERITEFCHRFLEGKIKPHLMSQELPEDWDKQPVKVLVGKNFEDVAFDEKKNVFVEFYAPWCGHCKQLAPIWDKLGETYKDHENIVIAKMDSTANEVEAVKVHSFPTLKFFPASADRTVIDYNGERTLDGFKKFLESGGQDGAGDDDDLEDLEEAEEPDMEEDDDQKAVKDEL
Sequence of Histone-lysine N-methyltransferase NSD2 (O96028 whole entry): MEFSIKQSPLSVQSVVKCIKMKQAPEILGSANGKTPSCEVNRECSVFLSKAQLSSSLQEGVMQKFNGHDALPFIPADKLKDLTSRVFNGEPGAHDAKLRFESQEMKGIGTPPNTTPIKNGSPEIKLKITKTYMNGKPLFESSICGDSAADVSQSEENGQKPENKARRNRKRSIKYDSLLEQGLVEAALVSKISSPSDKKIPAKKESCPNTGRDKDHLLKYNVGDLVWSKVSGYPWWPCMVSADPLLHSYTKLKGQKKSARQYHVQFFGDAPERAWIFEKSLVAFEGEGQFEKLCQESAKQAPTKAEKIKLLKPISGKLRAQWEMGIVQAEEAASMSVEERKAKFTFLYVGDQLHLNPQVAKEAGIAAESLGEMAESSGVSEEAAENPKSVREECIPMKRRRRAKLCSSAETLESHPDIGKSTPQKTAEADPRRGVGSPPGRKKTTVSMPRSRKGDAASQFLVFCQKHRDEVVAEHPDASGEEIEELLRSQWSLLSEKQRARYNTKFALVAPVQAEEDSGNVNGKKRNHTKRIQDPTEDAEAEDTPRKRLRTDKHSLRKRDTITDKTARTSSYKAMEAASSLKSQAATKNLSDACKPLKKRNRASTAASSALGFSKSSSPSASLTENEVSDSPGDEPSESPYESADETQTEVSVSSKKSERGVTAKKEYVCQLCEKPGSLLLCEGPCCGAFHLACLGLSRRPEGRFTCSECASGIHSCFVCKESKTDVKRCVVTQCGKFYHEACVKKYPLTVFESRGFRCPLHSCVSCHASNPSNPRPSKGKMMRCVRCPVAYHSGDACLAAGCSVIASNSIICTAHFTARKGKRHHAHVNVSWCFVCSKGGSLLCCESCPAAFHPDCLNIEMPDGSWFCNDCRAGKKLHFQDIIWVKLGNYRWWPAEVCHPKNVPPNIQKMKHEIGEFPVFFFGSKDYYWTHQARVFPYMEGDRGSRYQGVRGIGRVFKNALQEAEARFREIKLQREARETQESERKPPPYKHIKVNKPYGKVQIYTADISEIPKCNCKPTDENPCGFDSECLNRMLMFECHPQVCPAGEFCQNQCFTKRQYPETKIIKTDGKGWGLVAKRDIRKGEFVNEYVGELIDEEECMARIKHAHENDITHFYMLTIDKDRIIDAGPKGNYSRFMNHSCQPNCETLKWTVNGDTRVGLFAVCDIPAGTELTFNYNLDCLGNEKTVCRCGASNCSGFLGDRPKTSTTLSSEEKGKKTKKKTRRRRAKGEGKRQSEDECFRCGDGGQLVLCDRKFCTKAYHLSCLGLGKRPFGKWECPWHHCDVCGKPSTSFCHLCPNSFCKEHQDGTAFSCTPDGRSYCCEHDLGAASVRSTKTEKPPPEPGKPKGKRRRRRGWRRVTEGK
Sequence of Induced myeloid leukemia cell differentiation protein Mcl-1 (Q07820 whole entry): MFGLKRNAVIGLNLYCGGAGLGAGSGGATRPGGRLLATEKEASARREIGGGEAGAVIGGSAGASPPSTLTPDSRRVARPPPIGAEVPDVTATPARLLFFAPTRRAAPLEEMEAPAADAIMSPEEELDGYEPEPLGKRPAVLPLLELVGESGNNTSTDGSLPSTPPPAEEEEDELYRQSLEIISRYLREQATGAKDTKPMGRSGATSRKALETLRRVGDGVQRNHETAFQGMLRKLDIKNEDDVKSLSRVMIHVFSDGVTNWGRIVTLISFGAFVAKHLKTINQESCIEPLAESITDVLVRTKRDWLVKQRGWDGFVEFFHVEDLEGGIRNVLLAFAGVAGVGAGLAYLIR
Sequence of NAD-dependent protein deacylase sirtuin-5, mitochondrial (Q9NXA8 whole entry): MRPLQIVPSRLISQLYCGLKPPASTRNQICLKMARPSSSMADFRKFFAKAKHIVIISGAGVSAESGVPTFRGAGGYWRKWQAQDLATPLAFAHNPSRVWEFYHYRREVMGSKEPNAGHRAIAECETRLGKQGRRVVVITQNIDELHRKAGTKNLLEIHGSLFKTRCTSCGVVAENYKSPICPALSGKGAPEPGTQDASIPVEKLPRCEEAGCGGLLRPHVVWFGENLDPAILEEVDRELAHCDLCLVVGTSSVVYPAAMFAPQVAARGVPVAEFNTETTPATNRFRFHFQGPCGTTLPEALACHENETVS

## Cc1ccc2nc(NC(=O)C3CCN(S(=O)(=O)c4cccs4)CC3)sc2c1
[1]
  AC50: 46.5 µM (active)
[2]
  AC50: > 70 µM (inactive)
[3]
  AC50: 13.9 µM (active)
[4]
  AC50: 3.05 µM (active)
[5]
  AC50: 69.6 µM (active)

## COC(=O)C1=C(C)N(Cc2ccc(Cl)cc2)C(=S)NC1c1cccc(F)c1 (stereo not given)
HEK293
  AC50: 21.4 µM (active)
[6]
  AC50: 21.4 µM (active)

## O=C(NC(Cc1c[nH]c2ccccc12)C(=O)Nc1ccc(OC(F)(F)F)cc1)c1cccs1 (stereo not given)
[7]
  IC50: 11 µM (inactive)
[8]
  IC50: > 69.5 µM (inactive)

## COc1ccc(-c2cn(CC[C@@H]3CC[C@H](NC(=O)Nc4ccc(F)cc4)[C@H](CO)O3)nn2)cc1
A549
  AC50: 21.3 µM (active)
Vero
  AC50: 24.2 µM (active)
BHK-21
  AC50: 38.8 µM (active)

## CC(C)(C)[S+]([O-])N1Cc2cc(C(=O)NCCCN3CCOCC3)nc(-c3cccc(C#CCC4CCCC4)c3)c2[C@@H]1CCO (stereo not given in full)
Paired box protein Pax-8
  AC50: 24 µM (active)
[9]
  AC50: 40.4 µM (active)
[10]
  AC50: 4.02 µM (active)

## O=C(NNc1nc2cc3c(cc2s1)OCO3)c1ccc(F)cc1
[11]
  IC50: > 122 µM (inactive)

## CC(C)N1CC2(CN(CC3CCCCC3)C2)Oc2c(NC(=O)c3ccncc3)cccc2C1=O
[12]
  AC50: 1.18 µM (active)

## O=C(NCC(c1ccc(F)cc1)N1CCOCC1)c1ccc(Br)o1 (stereo not given)
[13]
  IC50: > 69.5 µM (inactive)
[14]
  IC50: > 69.5 µM (inactive)

## O=c1[nH]c(=O)c2nc(-c3ccc(Cl)cc3)cnc2[nH]1
[15]
  IC50: > 100 µM (inactive)
[16]
  IC50: 0.643 µM (active)
Cells [17]
  AC50: > 52 µM (inactive)
Cells [18]
  AC50: > 52 µM (inactive)

## CCC(=O)N1C[C@@H](C)[C@@H](OC)CN(C)C(=O)c2cc(NC(=O)CC(F)(F)F)ccc2OC[C@@H]1C
[19]
  AC50: 4 µM (active)

## C[C@H](CO)N1C[C@H](C)[C@@H](CN(C)C(=O)c2ccc3c(c2)OCO3)Oc2cc(C#Cc3ccccc3F)ccc2S1(=O)=O
Paired box protein Pax-8
  AC50: 6.89 µM (active)
[20]
  AC50: 17.7 µM (active)
[21]
  AC50: 62.6 µM (active)
[22]
  AC50: 9.58 µM (active)

## C[C@H]1CCC/C=C/[C@@H]2C[C@H](O)C[C@H]2[C@H](O)/C=C/C(=O)O1 [BREFELDIN A]
Major prion protein
  IC50: 3.5 µM (active)
Paired box protein Pax-8
  AC50: < 0.26 µM (active)
Cells [23]
  IC50: > 138 µM (inactive)
[24]
  IC50: 0.134 µM (active)
INS1; Rattus norvegicus, INS1
  AC50: 1.03 µM (active)
INS1; ins1
  AC50: 1.06 µM (active)
[25]
  AC50: 3.15 µM (active) and 2.2 µM (active)
[26]
  AC50: 10.3 µM (active)
[27]
  IC50: > 80 µM (inactive)
[28]
  AC50: < 0.16 µM (active)
Cells [29]
  IC50: > 67.6 µM (inactive)

## O=C(NCCc1ccc(Cl)cc1)c1ccc2c(c1)OCCO2
[30]
  AC50: 20.1 µM (active)
[31]
  AC50: > 52 µM (inactive)
[32]
  AC50: 21.2 µM (active)

## CCCCC1(O)CCCN(C(=O)c2ccc(C#Cc3ccc(OC)cc3)cc2)C1 (stereo not given)
[33]
  IC50: 2.92 µM

## CCOC(=O)C1(Cc2ccccc2)CCN(Cc2ccc(O)c(Cl)c2)CC1
[34]
  AC50: > 30 µM (inactive)

## CCOC(=O)C1CCN(c2nc(N)c3c(N)nc(SCC(=O)O)cc3c2C#N)CC1
Protein RecA
  EC50: > 380 µM (inactive)
[35]
  AC50: 6.04 µM (active)
[36]
  IC50: 4.87 µM (active)

## CCN(CC)c1ccc2cc(C(N)=O)c(=O)oc2c1
Cells [37]
  AC50: 0.573 µM (active)

## CCCCOc1ccc(C(C)C(=O)NO)cc1 (stereo not given)
[38]
  IC50: 12.9 µM (inactive)

## Oc1ccc(CCNc2c3ccccc3nc3ccccc23)cc1
[39]
  IC50: 0.7 µM (active)
